# Data as given in US20260226417A1, “METHOD FOR INHIBITING AGING OF STEM CELLS” (ENCELL CO., LTD, priority 2023, published 2026).
# Assays:
# [1] = tested on: replicative senescence-induced human umbilical cord-derived mesenchymal stem cells (P18); test: Cell proliferation by CCK-8 assay, 6 days, replicative senescence model (P18); format: cell-based; details: 160 μM
# Experimental: Example 4. Validation of gut microbiota-derived metabolite candidate for senescence control Control cells (P5) and replicative senescence-induced human umbilical cord-derived mesenchymal stem cells (P18) were treated with nervonic acid (160 μM) to analyze the effects of the gut microbiota-derived metabolite having the ability to control senescence of stem cells on the proliferation of stem cells and cell size.
# Specifically, control cells (p5) and replicative senescence-induced human umbilical cord-derived mesenchymal stem cells (P18) were exposed to nervonic acid (160 μM) in culture medium, followed by culture for 6 days while replacing the medium every 3 days, and cell proliferation was assessed using CCK-8 assay.
# [2] = tested on: human-derived mesenchymal stem cells, control cells (P5) subcultured to P10; test: Doubling time by CCK-8 assay at P10 after treatment at each passage; format: cell-based; details: 160 μM for 24 hours at each passage, at P10, CCK-8
# Experimental: Example 8. Confirmation Of anti-senescence efficacy by treating various human tissue-derived mesenchymal stem cells with nervonic acid Human-derived mesenchymal stem cells were treated with nervonic acid (160 μM) at each passage during cell culture from control cells (P5) to P10 to determine whether continuous treatment with nervonic acid during cell culture at early passage numbers was able to delay cellular senescence.
# Specifically, from the day after human-derived mesenchymal stem cells were subcultured, treatment with 160 μM nervonic acid or an equivalent amount of DMSO (control) for 24 hours was performed, followed by replacement with the existing culture medium the next day. The above process was repeated to perform subculture up to P10 (passage 10). As such, B galactosidase staining for measuring cellular senescence was performed at P7, P8, P9, and P10, and cell doubling time and RNA extraction for qRT-PCR were both performed at P10. A more specific procedure therefor was carried out in the same manner as described above.
# Also, the doubling time of the control group (DMSO) and the nervonic acid treatment group was measured using CCK (cell counting kit)-8 assay.
# [3] = tested on: senescence markers P16 and P21; test: qRT-PCR of senescence markers P16 and P21 in replicative senescence model (P18); format: cell-based, human; details: 160 μM, 3 days
# Experimental: In order to verify the anti-senescence efficacy of nervonic acid, the expression levels of senescence-related markers in a control group (P5) and a replicative senescence model (P18) were measured after treatment with nervonic acid (160 μM).
# Specifically, qRT-PCR performed in this example is as follows: after treating the replicative senescence model (P18) with nervonic acid for 3 days, total RNA was extracted using Trizol (Invitrogen, MA, USA) according to the method provided by the vendor. After quantifying the extracted total RNA, random hexamer and dNTP were added, and PCR was performed at 65° C. for 5 minutes. 5× SSIV buffer, 100 mM DTT, RNAse OUT, and Superscript IV RT were added and reverse transcription was performed to synthesize cDNA, and then qRT-PCR was performed to measure gene expression, and the expression levels were compared through 2^−ΔΔCt analysis.
# [4] = tested on: human adipose-derived mesenchymal stem cells (AD-MSCs/passage 18); test: β-galactosidase staining, senescent AD-MSCs; format: cell-based; details: AD-MSCs passage 18, 3 days
# From the text: Human placenta-derived mesenchymal stem cells (pl-mscs) Were Isolated From Placentas Separated according to the previously reported method of Choi et al. (PLOS ONE, (2017) 12 (2): e0172642), umbilical cord blood-derived mesenchymal stem cells (UCB-MSCs) were isolated from the umbilical cord blood separated according to the method of Kim et al. (FEBS Letters, (2010) 584:3601-3608), and adipose tissue-derived mesenchymal stem cells (AD-MSCs) were isolated from adipose tissue separated according to the previously reported method of Palumbo et al. (Int. J. Mol. Sci. (2018) 19:1987).
# Each of the obtained mesenchymal stem cells was subcultured in aMEM (a-modified Minimum Essential Media) containing 10% fetal bovine serum (FBS) and 0.5% gentamicin (10 mg/ml).
# The replicative senescence models of human adipose-derived mesenchymal stem cells (AD-MSCs/passage 18), human bone marrow-derived mesenchymal stem cells (BM-MSCs/passage 15), human umbilical cord blood-derived mesenchymal stem cells (UCB-MSCs/passage 16), and human placenta-derived mesenchymal stem cells (PL-MSCs/passage 18) established as described above were treated with nervonic acid for 3 days, and β-galactosidase staining was performed to observe the extent of senescence.
smiles,measurement,setting,value
CCCCCCCC/C=C\CCCCCCCCCCCCCC(=O)O [nervonic acid],cell proliferation,[1],proliferation was significantly reduced
same,doubling time,[2],24.7 h
same,"P16 mRNA level, fold compared to before treatment",[3],0.78±0.01 fold
same,"P21 mRNA level, fold compared to before treatment",[3],0.82±0.02 fold
same,progression of senescence (β-galactosidase staining) compared to control group (DMSO),[4],progression of senescence was significantly inhibited
